Experimental data reported in patent US20260182575A1, “MOLECULES HAVING PESTICIDAL UTILITY AND INTERMEDIATES AND PROCESSES RELATED THERETO” (CORTEVA AGRISCIENCE LLC, priority 2022, published 2026).

Tests used:
[1] = tested on: Neotropical Brown Stink Bug (Euschistus heros, EUSCHE, BSB); assay: Bioassay 5: neotropical brown stink bug, artificial agar diet; format: in vivo
Method: Stock solutions were prepared with F1 as well as for each of the active ingredients individually. Test solutions were prepared from the stock solutions. Test solutions were prepared containing F1, the individual active ingredients, and mixtures of F1 with each of the active ingredients. The test solution for F1 and the individual active ingredients were prepared by adding 30 μL of the stock solution to a single well of a 96 well plate, then adding 30 μL of DMSO, followed by the addition of 140 μL of a 2:1 mixture of acetone:water as a diluent to create a 0.03% (w/v) solution. […]
The test solutions were tested against BSB using the following procedure: an artificial agar diet (2% agar, 12% sucrose) was distributed in 48 well plastic plates (Fisher Scientific™). […] The total number of living BSB nymphs was recorded four days after application. […] Percent control was measured using Abbott's correction formula (W. S. Abbott, J. Econ. Entomol. 18 (1925), pp. 265-267) as follows:
where X=No. of live nymphs on solvent check and Y=No. of live nymphs on treated bean segments. In Table B5 the “Expected % Control” was calculated using the method described in Colby S. R., Weeds, 1967, 15, 20-22. […]

[2] = tested on: Brown Planthopper (Nilaparvata lugens, NILALU, BPH); assay: Bioassay 6: brown planthopper, sprayed rice seedlings; format: in vivo; conditions: AI alone, AI Rate 0.049 g/ha, 6 days
Method: At these rates, F1 and the individual active ingredients were tested at a ratio of 1:1. […] F1 and triflumezopyrim were tested at a ratio of 16:1. Test solutions were prepared containing F1, the individual active ingredients, and mixtures of F1 with each of the active ingredients. Test solutions were prepared by weighing 5 mg of each test chemistry (either alone or in combination depending on the treatment) into a 25 mL glass vial. Next, 1 mL of acetone was added to each vial to dissolve the test chemistries, followed by 19 mL of water with 0.125% Tween 20 adjuvant. This test solution represented the 50 g/ha treatment, which was then serially diluted four-fold to create the three lower rates of 12.5, 3.125, and 0.78 g/ha. Triflumezopyrim was prepared in a similar manner, but two additional serial dilutions were conducted to create solutions representing 6 rates of 12.5, 3.125, 0.78, 0.19, 0.049, and 0.012 g/ha. The higher two doses were discarded, and the four lower doses were used for testing. Each rate was replicated four times, and solvent blanks were used as control treatments.
Five (5) rice seedlings (10-12 days old) planted in 3-inch pots were used as test plants. Rice seedlings were grown in soil and the soil was covered with a 2% agar solution. The test solutions were applied to test plants using a Devries laboratory research sprayer, set to spray at 200 liters per hectare (L/ha) using a TeeJet hollow cone nozzle. Following application, the rice seedlings were dried for 1 hour, after which a single clear plastic tube (2 inches in diameter×12 inches in height) was placed over the seedlings in each pot. The tube was pushed down into the agar to create a sealed test chamber. The agar prevented insects from hiding in the soil and made adult collection and grading easier. Ten to fifteen (10-15) 5th instar BPH nymphs were transferred to each test chamber using a vacuum aspirator. Immediately following BPH infestation, the test chamber was covered with a piece of grade 90 cheesecloth and secured with a rubber band, sealing the test chamber. The test chambers were held at 25° C. for 6 days, after which the total number of live insects was counted in each test chamber. Percent control was measured using Abbott's correction formula (W. S. Abbott, J. Econ. Entomol. 18 (1925), pp. 265-267) as follows:
where X=No. of live insects on solvent check and Y=No. of live insects in treated chambers. In Table B6 the “Expected % Control” was calculated using the method described in Colby S. R., Weeds, 1967, 15, 20-22. Bioassay 7: Corn Earworm (Helicoverpa zea, HELIZE, “CEW”), Fall Armyworm (Spodoptera frugiperda, LAPHFR, “FAW”), Beet Armyworm (Spodoptera exigua, LAPHEG, “BAW”),and Soybean Looper (Chrysodeixis includens, PSEPIN, “SBL”).

Cc1c(COC(=O)[C@@H]2[C@H](/C=C(\Cl)C(F)(F)F)C2(C)C)cccc1-c1ccccc1 (racemic) [Bifenthrin]
Average % Control AI ([1]; AI alone, Wt % AI 0.0045, EUSCHE, four days): 60.0%

C[C@]1(COC(=O)C2CC2)[C@@H]2C[C@H](O)[C@@]3(C)Oc4cc(-c5cccnc5)oc(=O)c4[C@H](O)[C@@H]3[C@@]2(C)CC[C@@H]1OC(=O)C1CC1 [Afidopyropen]
Average % Control AI [2]: 11.4%

COC(=O)N(C(=O)N1CO[C@@]2(C(=O)OC)Cc3cc(Cl)ccc3C2=N1)c1ccc(OC(F)(F)F)cc1 [Indoxacarb]
Average % Control AI [2]: 1.2%

CON=CNC(=O)c1ccc(C2=NOC(c3cc(Cl)cc(Cl)c3)(C(F)(F)F)C2)cc1C (centres unmarked) [Fluxametamide]
Average % Control AI [2]: 42.3%

Cc1ccc(COCC(F)(F)F)c(N2C(=O)CS/C2=N\C(=O)Nc2ccc(-c3ncn(-c4ccc(OC(F)(F)F)cc4)n3)cc2F)c1 [F1]
Average % Control F1 ([1]; F1 alone, Wt % F1 0.0045, EUSCHE nymphs, agar diet, four days after application): 7.1%
